Reference: PubChem BioAssay (NCI)
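These data come from cells grown in 96-well plates and exposed to compound for 48 hours at five concentrations. GI50 marks 50% less growth. TGI: total growth inhibition.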

Key:
Experiment in all cases: NCI tumour cell line growth inhibition, 48 h
[1] = system: UACC-62 melanoma
[2] = system: ACHN renal
[3] = system: PC-3 prostate
[4] = system: NCI-H23 lung
[5] = system: CCRF-CEM leukemia
[6] = system: MOLT-4 leukemia
[7] = system: HT29 colon
[8] = system: EKVX NSCLC
[9] = system: OVCAR-4 ovarian
[10] = system: SK-MEL-2 melanoma
[11] = system: A549 NSCLC
[12] = system: RXF 393 renal
[13] = system: HCT-15 colon
[14] = system: SF-295 CNS
[15] = system: NCI/ADR-RES ovarian
[16] = system: MDA-N
[17] = system: M14 melanoma
[18] = system: MCF7 breast
[19] = system: UO-31 renal
[20] = system: CAKI-1 renal
[21] = system: RPMI-8226 leukemia
[22] = system: HCC-2998 colon
[23] = system: K-562 leukemia
[24] = system: 786-0 renal
[25] = system: HCT-116 colon
[26] = system: SNB-19 CNS
[27] = system: MDA-MB-435
[28] = system: KM12 colon
[29] = system: IGROV1 ovarian
[30] = system: A498 renal
[31] = system: HOP-92 NSCLC
[32] = system: NCI-H460 lung
[33] = system: SK-OV-3 ovarian
[34] = system: SW-620 colon
[35] = system: COLO 205 colon
[36] = system: U251 CNS
[37] = system: HS 578T breast
[38] = system: UACC-257 melanoma
[39] = system: NCI-H522 lung
[40] = system: SK-MEL-5 melanoma
[41] = system: SR leukemia
[42] = system: SK-MEL-28 melanoma
[43] = system: MDA-MB-231 breast
[44] = system: MALME-3M melanoma
[45] = system: OVCAR-5 ovarian
[46] = system: HOP-62 NSCLC
[47] = system: OVCAR-3 ovarian
[48] = system: DU-145 prostate
[49] = system: SN12C renal
[50] = system: TK-10 renal
[51] = system: LOX IMVI melanoma
[52] = system: SF-539 CNS
[53] = system: BT-549 breast
[54] = system: SNB-75 CNS
[55] = system: OVCAR-8 ovarian
[56] = system: NCI-H226 lung
[57] = system: SF-268 CNS
[58] = system: HL-60(TB) leukemia
[59] = system: T-47D breast

COc1ccc(C(=O)NCCC2CN(S(=O)(=O)C(F)(F)F)c3ccccc32)c(OC)c1 (stereo unspecified)
TGI [1]: 80.1 µM | TGI [2]: > 100 µM | TGI [3]: > 100 µM | TGI [4]: > 100 µM | TGI [5]: 70.3 µM | TGI [6]: > 100 µM | TGI [7]: 73.8 µM | TGI [8]: > 100 µM | TGI [9]: > 100 µM | TGI [10]: > 100 µM | TGI [11]: > 100 µM | TGI [12]: > 100 µM | TGI [13]: > 100 µM | TGI [14]: > 100 µM | TGI [15]: 87.2 µM | TGI [16]: > 100 µM | TGI [17]: > 100 µM | TGI [18]: > 100 µM | TGI [19]: > 100 µM | TGI [20]: > 100 µM | TGI [21]: > 100 µM | TGI [22]: > 100 µM | TGI [23]: > 100 µM | TGI [24]: > 100 µM | TGI [25]: > 100 µM | TGI [26]: > 100 µM | TGI [27]: > 100 µM | TGI [28]: 71.3 µM | TGI [29]: > 100 µM | TGI [30]: > 100 µM | TGI [31]: > 100000 nM | TGI [32]: > 100 µM | TGI [33]: > 100 µM | TGI [34]: > 100 µM | TGI [35]: > 100 µM | TGI [36]: > 100 µM | TGI [37]: > 100 µM | TGI [38]: > 100 µM | TGI [39]: 46.8 µM | TGI [40]: 43.6 µM | TGI [41]: > 100 µM | TGI [42]: > 100 µM | TGI [43]: > 100 µM | TGI [44]: 35.3 µM | TGI [45]: > 100 µM | TGI [46]: > 100 µM | TGI [47]: > 100 µM | TGI [48]: > 100 µM

C[C@@]1(Br)C[C@@](C)(Cl)[C@@H](Br)CC1/C=C/Cl (stereo partly specified)
TGI [2]: 32 µM | TGI [3]: 29.3 µM | TGI [4]: > 100 µM | TGI [5]: 27.7 µM | TGI [6]: 33.8 µM | TGI [7]: 29.6 µM | TGI [49]: 28.2 µM | TGI [9]: > 100 µM | TGI [10]: 33.2 µM | TGI [11]: 61.7 µM | TGI [50]: 38 µM | TGI [13]: > 100 µM | TGI [14]: 27.4 µM | TGI [15]: 25.8 µM | TGI [16]: 29.7 µM | TGI [17]: 33.2 µM | TGI [18]: 31.7 µM | TGI [51]: 31.4 µM | TGI [19]: 37.4 µM | TGI [21]: 73.7 µM | TGI [22]: > 100 µM | TGI [52]: 31 µM | TGI [23]: > 100 µM | TGI [24]: 30.2 µM | TGI [53]: 36 µM | TGI [25]: 22.9 µM | TGI [26]: 45.3 µM | TGI [27]: 39.2 µM | TGI [28]: 29.6 µM | TGI [29]: 86.1 µM | TGI [32]: > 100 µM | TGI [33]: 37 µM | TGI [34]: 91.8 µM | TGI [35]: 29 µM | TGI [36]: 42.6 µM | TGI [54]: 25.4 µM | TGI [37]: 30.6 µM | TGI [55]: 29.5 µM | TGI [38]: 37.3 µM | TGI [40]: 26.4 µM | TGI [41]: 41 µM | TGI [42]: 53.7 µM | TGI [56]: 22.8 µM | TGI [43]: 36.2 µM | TGI [57]: 23 µM | TGI [45]: 29.1 µM | TGI [46]: 30.7 µM | TGI [47]: 28.4 µM

CC1(C)C(N(O)C(=O)Nc2ccc(Cl)cc2)N(c2ccc(Cl)cc2)C(=O)N1CC(=O)N/N=C/C=C/c1ccc([N+](=O)[O-])o1 (stereo unspecified)
GI50 [58]: 1090 nM | TGI [58]: 4 µM | GI50 [1]: 1350 nM | TGI [1]: 3.91 µM | GI50 [2]: 3.16 µM | TGI [2]: > 100 µM | GI50 [3]: 679 nM | GI50 [59]: 3.47 µM | TGI [59]: > 70.1 µM | GI50 [4]: 2130 nM | TGI [4]: 5.56 µM | GI50 [5]: 604 nM | TGI [5]: 2.2 µM | GI50 [6]: 804 nM | TGI [6]: 4.47 µM | GI50 [7]: 1920 nM | TGI [7]: > 22.6 µM | GI50 [8]: 3.17 µM | TGI [8]: > 83.4 µM | GI50 [49]: 1730 nM | TGI [49]: 9.73 µM | GI50 [9]: 3.87 µM | TGI [9]: > 100 µM | GI50 [10]: 946 nM | TGI [10]: 4.42 µM | GI50 [11]: 3.11 µM | TGI [11]: > 28.5 µM | GI50 [12]: 337 nM | TGI [12]: 1.64 µM | GI50 [50]: 4.06 µM | TGI [50]: > 100 µM | GI50 [13]: 2490 nM | TGI [13]: > 100 µM | GI50 [14]: 2550 nM | TGI [14]: > 100 µM | GI50 [15]: > 100 µM | TGI [15]: > 100 µM | GI50 [17]: 1880 nM | TGI [17]: 7.08 µM | GI50 [18]: 1010 nM | TGI [18]: > 26.7 µM | GI50 [51]: 1560 nM | TGI [51]: 3.04 µM | GI50 [19]: 2640 nM | TGI [19]: > 20.8 µM | GI50 [20]: > 23.2 µM | TGI [20]: > 100 µM | GI50 [21]: 327 nM | TGI [21]: 1.63 µM | GI50 [22]: 1700 nM | TGI [22]: 3.43 µM | GI50 [52]: 1810 nM | TGI [52]: 3.81 µM | GI50 [23]: 1570 nM | TGI [23]: 6.03 µM | GI50 [24]: 2750 nM | TGI [24]: 10.3 µM | GI50 [53]: 1600 nM | TGI [53]: 5.19 µM | GI50 [25]: 731 nM | TGI [25]: 2.52 µM | GI50 [26]: 2270 nM | TGI [26]: 6.73 µM | GI50 [27]: 2610 nM | TGI [27]: 10.9 µM | GI50 [28]: 1710 nM | TGI [28]: 3.76 µM | GI50 [29]: 2460 nM | GI50 [30]: 1730 nM | TGI [30]: 4.12 µM | GI50 [31]: 522 nM | TGI [31]: 2310 nM | GI50 [32]: 2270 nM | TGI [32]: 6.39 µM | GI50 [33]: 4.48 µM | TGI [33]: > 100 µM | GI50 [34]: 1310 nM | TGI [34]: 3.52 µM | GI50 [35]: 1330 nM | TGI [35]: 2.85 µM | GI50 [36]: 1570 nM | TGI [36]: > 20.7 µM | GI50 [54]: 1880 nM | TGI [54]: 7.11 µM | GI50 [37]: 3000 nM | TGI [37]: > 84.4 µM | GI50 [55]: 1860 nM | GI50 [38]: 1580 nM | TGI [38]: 3.52 µM | GI50 [39]: 2230 nM | TGI [39]: > 21.3 µM | GI50 [40]: 1320 nM | TGI [40]: 2.76 µM | GI50 [41]: 273 nM | TGI [41]: 1.95 µM | GI50 [42]: 1610 nM | TGI [42]: 3.16 µM | GI50 [56]: 1990 nM | TGI [56]: 4.88 µM | GI50 [43]: 2040 nM | TGI [43]: 7.57 µM | GI50 [57]: 3.8 µM | TGI [57]: > 59 µM | GI50 [44]: 1290 nM | TGI [44]: 3.08 µM | GI50 [45]: 3.81 µM | TGI [45]: 14 µM | GI50 [46]: 2760 nM | TGI [46]: 6.2 µM | GI50 [47]: 1490 nM | TGI [47]: 3.96 µM | GI50 [48]: 1850 nM | TGI [48]: 4.07 µM

C=Cc1nc2nnc(CCCCCCCCc3nnc4nc(C=C)[nH]n34)n2[nH]1
TGI [58]: > 100 µM | TGI [2]: > 100 µM | TGI [3]: > 100 µM | TGI [4]: > 100 µM | TGI [5]: > 100 µM | TGI [6]: > 100 µM | TGI [7]: > 100 µM | TGI [8]: > 100 µM | TGI [49]: > 100 µM | TGI [9]: > 100 µM | TGI [10]: > 100 µM | TGI [11]: > 100 µM | TGI [12]: > 100 µM | TGI [50]: > 100 µM | TGI [13]: > 100 µM | TGI [14]: > 100 µM | TGI [15]: > 100 µM | TGI [16]: > 100 µM | TGI [17]: > 100 µM | TGI [18]: > 100 µM | TGI [51]: > 100 µM | TGI [19]: > 100 µM | TGI [20]: > 100 µM | TGI [22]: > 100 µM | TGI [52]: > 100 µM | TGI [23]: > 100 µM | TGI [24]: > 100 µM | TGI [53]: > 100 µM | TGI [25]: > 100 µM | TGI [26]: > 100 µM | TGI [27]: > 100 µM | TGI [28]: > 100 µM | TGI [29]: > 100 µM | TGI [30]: > 100 µM | TGI [32]: > 100 µM | TGI [33]: > 100 µM | TGI [34]: > 100 µM | TGI [35]: > 100 µM | TGI [36]: > 100 µM | TGI [54]: > 100 µM | TGI [55]: > 100 µM | TGI [38]: > 100 µM | TGI [40]: > 100 µM | TGI [42]: > 100 µM | TGI [56]: > 100 µM | TGI [43]: > 100 µM | TGI [57]: > 100 µM | TGI [44]: > 100 µM | TGI [45]: > 100 µM | TGI [46]: > 100 µM | TGI [47]: > 100 µM | TGI [48]: > 100 µM
